Measurements published in patent publication US9802899B2, “Heterocyclic compounds as pesticides” (BAYER CROPSCIENCE AG, priority 2012, dated 2017).

Test: Determination of the log P values by HPLC (formic acid method)
Type: physicochemical
Conditions: reversed-phase column (C 18), acidic range (pH 3.4), 55° C.
Description: 1) Description of Method for Determination of the Log P Values (Formic Acid Method)
Eluents for determination in the acidic range (pH 3.4):
Eluent A: acetonitrile+1 ml of formic acid/liter. Eluent B: water+0.9 ml of formic acid/liter.
The lambda max values were determined in the maxima of the chromatographic signals using the UV spectra from 200 nm to 400 nm.

SMILES | log P
Cn1cc(C(=O)Nc2ccn(-c3ncc(Cl)cc3Cl)n2)c(I)n1 [Compound I-1-435] | 1.83
O=C(Nc1ccn(-c2ncc(Cl)cc2Cl)n1)c1ccc(F)cc1C(F)(F)F [Compound I-1-436] | 2.61
O=C(Nc1ccn(-c2ncc(Cl)cc2Cl)n1)c1cc(Cl)ccc1C(F)(F)F [Compound I-1-437] | 2.93
Cc1nc(-n2ccc(NC(=O)c3ccccc3C(F)(F)F)n2)c(F)cc1F [Compound I-1-439] | 2.85
Cc1nc(-n2ccc(NC(=O)c3cccnc3C(F)(F)F)n2)c(F)cc1F [Compound I-1-440] | 2.38
Cc1nc(-n2ccc(NC(=O)c3c(F)cccc3F)n2)c(F)cc1F [Compound I-1-441] | 2.56
Cc1nc(-n2ccc(NC(=O)c3ccccc3Br)n2)c(F)cc1F [Compound I-1-442] | 2.71
O=C(Nc1ccn(-c2ncc(F)cc2F)n1)c1ccnn1C(F)F [Compound I-1-443] | 2.16
Cc1nn(C(F)F)c(C(=O)Nc2ccn(-c3ncc(F)cc3F)n2)c1F [Compound I-1-444] | 2.65
Cc1nn(C)c(C)c1C(=O)Nc1ccn(-c2ncc(F)cc2F)n1 [Compound I-1-445] | 1.60
Cc1nn(C)cc1C(=O)Nc1ccn(-c2ncc(F)cc2F)n1 [Compound I-1-446] | 1.54
Cc1nn(C)c(C(=O)Nc2ccn(-c3ncc(F)cc3F)n2)c1[N+](=O)[O-] [Compound I-1-447] | 2.03
Cc1c([N+](=O)[O-])c(C(=O)Nc2ccn(-c3ncc(F)cc3F)n2)nn1C [Compound I-1-448] | 1.83
Cn1ncnc1C(=O)Nc1ccn(-c2ncc(F)cc2F)n1 [Compound I-1-449] | 1.67
Cn1nc(C(F)(F)C(F)(F)F)c(C(F)(F)F)c1C(=O)Nc1ccn(-c2ncc(F)cc2F)n1 [Compound I-1-450] | 3.65
Cn1nc(C(F)(F)F)c(C(=O)Nc2ccn(-c3ncc(F)cc3F)n2)c1C(F)(F)F [Compound I-1-451] | 2.79
Cn1ccc([N+](=O)[O-])c1C(=O)Nc1ccn(-c2ncc(F)cc2F)n1 [Compound I-1-452] | 2.27
Cn1cc([N+](=O)[O-])c(C(=O)Nc2ccn(-c3ncc(F)cc3F)n2)n1 [Compound I-1-453] | 1.69
Cn1cnc(C(=O)Nc2ccn(-c3ncc(F)cc3F)n2)c1[N+](=O)[O-] [Compound I-1-454] | 1.58
CCC(C)n1ncc(Cl)c1C(=O)Nc1ccn(-c2ncc(F)cc2F)n1 (stereo not shown) [Compound I-1-455] | 3.37
CCC(C)n1ncc(I)c1C(=O)Nc1ccn(-c2ncc(F)cc2F)n1 (stereo not shown) [Compound I-1-456] | 3.28
O=C(Nc1ccn(-c2ncc(F)cc2F)n1)c1cccnc1CC(F)(F)F [Compound I-1-457] | 2.13
O=C(Nc1ccn(-c2ncc(F)cc2F)n1)c1ccccc1OC(F)F [Compound I-1-458] | 2.53
O=C(Nc1ccn(-c2ncc(F)cc2F)n1)c1ccccc1OC(F)F [Compound I-1-459] | 2.50
O=C(Nc1ccn(-c2ncc(F)cc2F)n1)c1cccnc1C(F)F [Compound I-1-460] | 1.77

SMILES | log P
CSc1ncccc1C(=O)Nc1ccn(-c2ncc(F)cc2F)n1 [Compound I-1-461] | 2.14
CS(=O)(=O)c1ccccc1C(=O)Nc1ccn(-c2ncc(F)cc2F)n1 [Compound I-1-462] | 1.69
O=C(Nc1ccn(-c2ncc(F)cc2F)n1)c1ccccc1OC(F)(F)F [Compound I-1-463] | 2.77
O=C(Nc1ccn(-c2ncc(F)cc2F)n1)c1cccnc1OC(F)(F)F [Compound I-1-464] | 2.53
O=C(Nc1nn(-c2ncc(F)cc2F)cc1F)c1ccccc1C(F)(F)F [Compound I-1-465] | 2.44
CN(C(=O)c1ccccc1C(F)(F)F)c1ccn(-c2ncc(F)cc2F)n1 [Compound I-1-467] | 2.96
CCN(C(=O)c1ccccc1C(F)(F)F)c1ccn(-c2ncc(F)cc2F)n1 [Compound I-1-468] | 3.23
C=CCN(C(=O)c1ccccc1C(F)(F)F)c1ccn(-c2ncc(F)cc2F)n1 [Compound I-1-469] | 3.38
C#CCN(C(=O)c1ccccc1C(F)(F)F)c1ccn(-c2ncc(F)cc2F)n1 [Compound I-1-470] | 3.05
O=C(c1ccccc1C(F)(F)F)N(CC1CC1)c1ccn(-c2ncc(F)cc2F)n1 [Compound I-1-471] | 3.62
N#CCN(C(=O)c1ccccc1C(F)(F)F)c1ccn(-c2ncc(F)cc2F)n1 [Compound I-1-472] | 2.80
O=C(Nc1nn(-c2ncc(F)cc2F)cc1Cl)c1ccccc1C(F)(F)F [Compound I-1-473] | 2.62
O=C(Nc1nn(-c2ncc(F)cc2F)cc1Br)c1ccccc1C(F)(F)F [Compound I-1-474] | 2.61
O=C(Nc1nn(-c2ncc(F)cc2F)cc1[N+](=O)[O-])c1ccccc1C(F)(F)F [Compound I-1-475] | 2.63
O=C(Nc1ccn(-c2ncc(F)cc2F)n1)c1cccc(Cl)c1Cl [Compound I-1-476] | 2.72
O=C(c1cccc(Cl)c1Cl)N(C(=O)c1cccc(Cl)c1Cl)c1ccn(-c2ncc(F)cc2F)n1 [Compound I-1-477] | 4.47
Cc1nc(C)c(C(=O)Nc2ccn(-c3ncc(F)cc3F)n2)s1 [Compound I-1-478] | 1.88
O=C(Nc1ccn(-c2ncc(F)cc2F)n1)c1c(Cl)cccc1Cl [Compound I-1-479] | 2.51
Cc1cccc(C)c1C(=O)Nc1ccn(-c2ncc(F)cc2F)n1 [Compound I-1-480] | 2.51
CC(=O)c1ccccc1C(=O)Nc1ccn(-c2ncc(F)cc2F)n1 [Compound I-1-481] | 2.22
O=C(Nc1ccn(-c2ncc(F)cc2F)n1)c1cccnc1Br [Compound I-1-482] | 1.77
COc1ccc(Cl)c(C(=O)Nc2ccn(-c3ncc(F)cc3F)n2)c1 [Compound I-1-483] | 2.51
O=C(Nc1ccn(-c2ncc(F)cc2F)n1)c1c(F)cccc1Cl [Compound I-1-484] | 2.38
O=C(Nc1ccn(-c2ncc(F)cc2F)n1)c1nccnc1Cl [Compound I-1-485] | 1.89
O=C(Nc1ccn(-c2ncc(F)cc2F)n1)c1ccccc1C1CC1 [Compound I-1-486] | 2.68

SMILES | log P
CCc1cccc(F)c1C(=O)Nc1ccn(-c2ncc(F)cc2F)n1 [Compound I-1-487] | 2.69
CCc1ccccc1C(=O)Nc1ccn(-c2ncc(F)cc2F)n1 [Compound I-1-488] | 2.69
CCc1nccnc1C(=O)Nc1ccn(-c2ncc(F)cc2F)n1 [Compound I-1-489] | 2.42
CCc1ncccc1C(=O)Nc1ccn(-c2ncc(F)cc2F)n1 [Compound I-1-490] | 1.29
O=C(Nc1ccn(-c2ncc(F)cc2F)n1)c1c(F)cccc1C(F)(F)F [Compound I-1-491] | 2.57
O=C(Nc1ccn(-c2ncc(F)cc2F)n1)c1c(F)cccc1I [Compound I-1-492] | 2.56
O=C(Nc1ccn(-c2ncc(F)cc2F)n1)c1ccccc1F [Compound I-1-493] | 2.31
O=C(Nc1ccn(-c2ncc(F)cc2F)n1)c1ccsc1I [Compound I-1-494] | 2.53
O=C(Nc1ccn(-c2ncc(F)cc2F)n1)c1cccnc1I [Compound I-1-495] | 1.79
COc1ccccc1C(=O)Nc1ccn(-c2ncc(F)cc2F)n1 [Compound I-1-496] | 2.55
Cc1nc(C(F)(F)F)c(C(=O)Nc2ccn(-c3ncc(F)cc3F)n2)s1 [Compound I-1-497] | 2.35
CC1=C(C(=O)Nc2ccn(-c3ncc(F)cc3F)n2)SCCO1 [Compound I-1-498] | 2.17
Cc1ccccc1C(=O)Nc1ccn(-c2ncc(F)cc2F)n1 [Compound I-1-499] | 2.36
Cn1nc(C(F)F)c(C(=O)Nc2ccn(-c3ncc(F)cc3F)n2)c1F [Compound I-1-500] | 2.06
O=C(Nc1ccn(-c2ncc(F)cc2F)n1)c1nccnc1C(F)(F)F [Compound I-1-501] | 2.20
O=C(Nc1ccn(-c2ncc(F)cc2F)n1)c1ncccc1C(F)(F)F [Compound I-1-502] | 2.38
O=C(Nc1ccn(-c2ncc(F)cc2F)n1)c1sccc1Cl [Compound I-1-503] | 2.61
O=C(Nc1ccn(-c2ncc(F)cc2F)n1)c1ncccc1Cl [Compound I-1-504] | 2.16
CCc1nnccc1C(=O)Nc1ccn(-c2ncc(F)cc2F)n1 [Compound I-1-505] | 1.50
O=C(Nc1ccn(-c2ncc(F)cc2F)n1)c1cc(F)ccc1C(F)(F)F [Compound I-1-506] | 2.65
O=C(Nc1ccn(-c2ncc(F)cc2F)n1)c1sccc1I [Compound I-1-507] | 2.69
CC(C)Cc1nn(C)c(C(=O)Nc2ccn(-c3ncc(F)cc3F)n2)c1[N+](=O)[O-] [Compound I-1-508] | 3.02
CC(C)c1nn(C)c(C(=O)Nc2ccn(-c3ncc(F)cc3F)n2)c1[N+](=O)[O-] [Compound I-1-509] | 2.72
